Measurements: US10308916B2, “Omega-transaminase mutants with activity improvements toward ketones and methods for producing optically pure amines” (Industry-Academic Cooperation Foundation, Yonsei University, priority 2015, dated 2019)
Read-outs that look alike come from different tables or passages of the source.

Legend:
Assay type in all cases: biochemical
OATA W58L [1] = conditions: pH 7
OATA W58L [2] = test system: OATA W58L
OATA W58A [3] = test system: OATA W58A
OATA W58L [4] = test system: OATA W58L; remark: listed apart in the source
OATA W58A [5] = conditions: pH 7
OATA W58V = conditions: pH 7
OATA W58I = conditions: pH 7
OATA W58M = conditions: pH 7
OATA L57A/W58A/V154A [6] = test system: OATA L57A/W58A/V154A
OATA L57A/W58A = test system: OATA L57A/W58A
OATA L57A/W58A/V154A [7] = test system: OATA L57A/W58A/V154A; remark: listed apart in the source
OATA L57C/W58L/I261A = test system: OATA L57C/W58L/I261A

Row | Compound | Relative activity to acetophenone, OATA W58L (OATA W58L [1]) | Relative reactivity, OATA W58A (OATA W58A [3]) | Relative reactivity, OATA W58L (OATA W58L [4]) | Relative activity to acetophenone, OATA W58A (OATA W58A [5]) | Relative activity to acetophenone, OATA W58V (OATA W58V) | Relative activity to acetophenone, OATA W58I (OATA W58I) | Relative activity to acetophenone, OATA W58M (OATA W58M) | further results
1 | 1-acetonaphthone [Ketone 1i] | 47% | – | – | – | – | – | – | Conversion (%) OATAW58L (OATA W58L [2]): 75%
2 | CC(N)CO (racemic) [DL-Alaninol] | – | 13% | 39% | – | – | – | – | –
3 | CC(C)C(C)N (stereo not shown) [1,2-Dimethylpropylamine] | – | 101% | 305% | – | – | – | – | –
4 | CC(C)CC(C)N (stereo not shown) [1,3-Dimethylbutylamine] | – | 173% | 283% | – | – | – | – | –
5 | COCC(C)N (stereo not shown) [1-Methoxy-2-propylamine] | – | 126% | 119% | – | – | – | – | –
6 | CC(N)CCc1ccccc1 (stereo not shown) [1-Methyl-3-phenylpropylamine] | – | 151% | 202% | – | – | – | – | –
7 | CCC(=O)CO [1-hydroxy-2-butanone] | – | – | – | 9% | 8% | 16% | 21% | –
8 | CC(C)(C)C(N)c1ccccc1 (stereo not shown) [2,2-Dimethyl-1-phenylpropan-1-amine] | – | 3% | 2% | – | – | – | – | –
9 | CCCC(C)N (stereo not shown) [2-Aminopentane] | – | 194% | 272% | – | – | – | – | –
10 | O=C(CO)c1ccccc1 [2-hydroxyacetophenone] | – | – | – | 61% | 70% | 73% | 65% | –
11 | CC(=O)C(C)O (stereo not shown) [3-hydroxy-2-butanone] | – | – | – | 20% | 29% | 23% | 32% | –
12 | CC(C)C(=O)C(=O)O [3-methyl-2-oxobutyric acid] | – | – | – | – | – | – | – | Relative activity, OATA L57A/W58A/V154A (OATA L57A/W58A/V154A [6]): 11%
13 | CC(N)c1ccc(F)cc1 (stereo not drawn) [4-Fluoro-α-methylbenzylamine] | – | 117% | 283% | – | – | – | – | –
14 | CC(=O)CCO [4-hydroxy-2-butanone] | – | – | – | 17% | 20% | 20% | 29% | –
15 | C[C@H](N)c1cccc2ccccc12 [(S)-1-(1-naphthyl)ethylamine] | – | 0.7% | 2% | – | – | – | – | Relative activity, OATA L57A/W58A (OATA L57A/W58A): 18%; Relative activity, OATA L57A/W58A/V154A (OATA L57A/W58A/V154A [7]): 60%
16 | C[C@H](N)C1CC1 [(S)-1-Cyclopropylethylamine] | – | 79% | 233% | – | – | – | – | –
17 | N[C@H]1CCc2ccccc21 [(S)-1-aminoindan] | – | 100% | 54% | – | – | – | – | –
18 | CCCC[C@H](C)N [(S)-2-aminohexane] | – | 116% | 306% | – | – | – | – | –
19 | CCCCCC[C@H](C)N [(S)-2-aminooctane] | – | 99% | 255% | – | – | – | – | –

Row | Compound | Relative activity to acetophenone, OATA W58L (OATA W58L [1]) | Relative reactivity, OATA W58A (OATA W58A [3]) | Relative reactivity, OATA W58L (OATA W58L [4]) | Relative activity to acetophenone, OATA W58A (OATA W58A [5]) | Relative activity to acetophenone, OATA W58V (OATA W58V) | Relative activity to acetophenone, OATA W58I (OATA W58I) | Relative activity to acetophenone, OATA W58M (OATA W58M) | further results
20 | COc1ccc([C@H](C)N)cc1 [(S)-4-methoxy-α-methylbenzylamine] | – | 44% | 98% | – | – | – | – | –
21 | Cc1ccc([C@H](C)N)cc1 [(S)-α,4-dimethylbenzylamine] | – | 45% | 78% | – | – | – | – | –
22 | CC[C@H](N)c1ccccc1 [(S)-α-ethylbenzylamine] | – | 44% | 20% | – | – | – | – | Relative activity, OATA L57A/W58A (OATA L57A/W58A): 202%; Relative activity, OATA L57A/W58A/V154A (OATA L57A/W58A/V154A [7]): 707%
23 | CC(=O)c1ccc(C)cc1 [Ketone 1d, 4-methylacetophenone] | 51% | – | – | 56% | 52% | 74% | 68% | Relative activity, OATA L57C/W58L/I261A (OATA L57C/W58L/I261A): 1,096%; Conversion (%) OATAW58L (OATA W58L [2]): 91%
24 | COc1ccc(C(C)=O)cc1 [Ketone 1e, 4-methoxyacetophenone] | 34% | – | – | 30% | 30% | 38% | 42% | Relative activity, OATA L57C/W58L/I261A (OATA L57C/W58L/I261A): 4,017%
25 | O=C1CCCc2ccccc21 [Ketone 1h, α-tetralone] | 0.7% | – | – | 19% | 12% | 16% | 17% | Relative activity, OATA L57C/W58L/I261A (OATA L57C/W58L/I261A): 243%
26 | CCCC(C)=O [Ketone 1j, 2-pentanone] | 141% | – | – | 15% | 28% | 21% | 25% | –
27 | CCCCC(C)=O [Ketone 1k, 2-hexanone] | 281% | – | – | 52% | 62% | 54% | 57% | Conversion (%) OATAW58L (OATA W58L [2]): 93%
28 | CCCCCCC(C)=O [Ketone 1l, 2-octanone] | 209% | – | – | 122% | 140% | 73% | 81% | Relative activity, OATA L57C/W58L/I261A (OATA L57C/W58L/I261A): 13,757%; Conversion (%) OATAW58L (OATA W58L [2]): 91%
29 | CC(=O)C(C)C [Ketone 1m, 3-methyl 2-butanone] | 78% | – | – | 21% | 29% | 26% | 29% | –
30 | CC(=O)CC(C)C [Ketone 1n, 4-methyl-2-pentanone] | 61% | – | – | 46% | 35% | 41% | 38% | –
31 | CCC(C)=O [Ketone 2-butanone, 2-butanone] | 78% | – | – | 16% | 17% | 20% | 25% | –
32 | Cc1cccc(C)c1OCC(C)N (stereo not shown) [Mexiletine, reference compound] | – | 197% | 284% | – | – | – | – | –
33 | CC(C)=O [acetone] | – | – | – | 19% | 18% | 18% | 19% | –
34 | CC(=O)CO [hydroxyacetone] | 23% | – | – | 31% | 32% | 42% | 44% | –
35 | COCC(C)=O [methoxyacetone] | 424% | – | – | 135% | 152% | 166% | 159% | –
36 | (S)-sec-butylamine | – | 66% | 266% | – | – | – | – | –
37 | cyclpropyl methyl ketone [Ketone 1o] | 4% | – | – | 14% | 14% | 17% | 19% | –
